The record followed here is patent publication US11497759B2, “Repurposcins: targeted inhibitors of mitochondrial biogenesis for eradicating cancer stem cells” (LUNELLA BIOTECH, INC., priority 2017, dated 2022).

Some results are limits rather than exact numbers.

For the test, the system named is MCF-7 breast CSCs. Put plainly: Inhibition of mammosphere-forming activity of MCF-7 breast CSCs. In kind it is cell-based, human. Particulars: treated for 5 days in mammosphere media, read-out: IC-50 for blocking CSC propagation (mammosphere-forming activity). From the text: The black bars show 2,4-dichlorobenzyl-TPP; the inclined bars show 1-naphthylmethyl-TPP; the dotted bars show 3-methylbenzyl-TPP; the unshaded bars show 2-chlorobenzyl-TPP; and the horizontal lined bars show 2-butene-1,4-bis-TPP. […] Data are represented as mean+/−SEM.

As to `C(=CC[P+](c1ccccc1)(c1ccccc1)c1ccccc1)C[P+](c1ccccc1)(c1ccccc1)c1ccccc1` [2-butene-1,4-bis-TPP], the IC50 is under 500 nM.
